Measurements from paper PMC11091879, “Inhibitors of the Thioesterase Activity of Mycobacterium tuberculosis Pks13 Discovered Using DNA-Encoded Chemical Library Screening” (ACS Infectious Diseases, 2024).

What was measured:
Format in all cases: cell-based, Mycobacterium tuberculosis
[1] = tested on: H37Rv Pks13-TE R1563H mutant
[2] = tested on: H37Rv Pks13-TE A1561 V mutant
[3] = tested on: H37Rv Pks13-TE A1564D mutant
[4] = tested on: H37Rv Pks13-TE N1640K mutant
[5] = tested on: H37Rv Pks13-TE V1537A mutant
[6] = tested on: H37Rv Pks13-TE V1687F mutant
[7] = tested on: H37Rv Pks13-TE Y1674C mutant
[8] = tested on: H37Rv Pks13-TE Y1686C mutant
WT H37Rv = tested on: WT H37Rv

CO[C@H]1/C=C/O[C@@]2(C)Oc3c(C)c(O)c4c(O)c(c(/C=N/N5CCN(C)CC5)c(O)c4c3C2=O)NC(=O)/C(C)=C\C=C\[C@H](C)[C@H](O)[C@@H](C)[C@@H](O)[C@@H](C)[C@H](OC(C)=O)[C@@H]1C [Rifampicin, reference compound] was tested, and the “Fold Change in MIC (Mutant MIC/WT H37Rv MIC)” value (“Fold Change in MIC” for short) [1] was 0.9 fold, the “Fold Change in MIC” value [2] was 1.2 fold and the “Fold Change in MIC” value [3] was 0.8 fold. For the same compound, the “Fold Change in MIC” value [4] was 1.5 fold, the “Fold Change in MIC” value [5] was 1.3 fold and the “Fold Change in MIC” value [6] was 1.2 fold. The “Fold Change in MIC” value [7] was 1.6 fold and the “Fold Change in MIC” value [8] was 1 fold.
COc1ccc(OC)c(-c2ccc(-c3cn(CCc4ccc(C(=O)N(C)C)cc4)nn3)cn2)c1 [X20404] was tested, and the “Fold Change in MIC” value [1] was greater than 63 fold, the “Fold Change in MIC” value [2] was 40 fold and the “Fold Change in MIC” value [3] was greater than 63 fold. The “Fold Change in MIC” value [4] was 37 fold, the “Fold Change in MIC” value [5] was greater than 63 fold and the “Fold Change in MIC” value [6] was greater than 63 fold. The “Fold Change in MIC” value [7] was greater than 63 fold, the “Fold Change in MIC” value [8] was 19 fold and the “frequency of resistance (FOR)” value (WT H37Rv) was 4.7 × 10^–7.
Cc1cc(C(=O)NCc2ccncc2)nc(N2CCC(C(=O)N3CCN(C(=O)c4cnc5c(C)cccc5c4)CC3)CC2)n1 [X21429] was tested, and the “Fold Change in MIC” value [1] was 1.6 fold, the “Fold Change in MIC” value [2] was greater than 57 fold and the “Fold Change in MIC” value [3] was 17 fold. The “Fold Change in MIC” value [4] was greater than 57 fold, the “Fold Change in MIC” value [5] was 8.8 fold and the “Fold Change in MIC” value [6] was 2.3 fold. The “Fold Change in MIC” value [7] was 18 fold and the “Fold Change in MIC” value [8] was 3.8 fold.
